{
  "source": "patent US8802597B2",
  "about": "“Herbicidal pyrimidines” (E I du Pont de Nemours and Company, priority 2003, dated 2014)",
  "type_in_all_cases": "in vivo",
  "key": {"[1]": {"tested_on": "Surinam grass (Brachiaria decumbens)", "assay": "Test B pre/postemergence", "procedure,_shortened": "(§1)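 Formulation: non-phytotoxic solvent blend with surfactant. Timing: preemergence on seeds, postemergence at 1- to 4-leaf (2–18 cm). Assessment: visual, 0–100 against controls, after 13–15 days' greenhouse growth.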"}, "[2]": {"tested_on": "barnyardgrass (Echinochloa crus-galli)", "assay": "Test B pre/postemergence", "procedure,_shortened": "as §1"}, "[3]": {"tested_on": "cocklebur (Xanthium strumarium)", "assay": "Test B pre/postemergence", "procedure,_shortened": "as §1"}, "corn (Zea mays)": {"tested_on": "corn (Zea mays)", "assay": "Test B pre/postemergence", "procedure,_shortened": "as §1"}, "[4]": {"tested_on": "crabgrass (Digitaria sanguinalis)", "assay": "Test B pre/postemergence", "procedure,_shortened": "as §1"}, "[5]": {"tested_on": "giant foxtail (Setaria faberii)", "assay": "Test B pre/postemergence", "procedure,_shortened": "as §1"}, "[6]": {"tested_on": "lambsquarters (Chenopodium album)", "assay": "Test B pre/postemergence", "procedure,_shortened": "as §1"}, "[7]": {"tested_on": "morningglory (Ipomoea coccinea)", "assay": "Test B pre/postemergence", "procedure,_shortened": "as §1"}, "[8]": {"tested_on": "pigweed (Amaranthus retroflexus)", "assay": "Test B pre/postemergence", "procedure,_shortened": "as §1"}, "[9]": {"tested_on": "velvetleaf (Abutilon theophrasti)", "assay": "Test B pre/postemergence", "procedure,_shortened": "as §1"}, "[10]": {"tested_on": "wheat (Triticum aestivum)", "assay": "Test B pre/postemergence", "procedure,_shortened": "as §1"}, "[11]": {"tested_on": "blackgrass (Alopecurus myosuroides)", "assay": "Test B postemergence", "procedure,_shortened": "as §1"}, "wild oat (Avena fatua)": {"tested_on": "wild oat (Avena fatua)", "assay": "Test B postemergence", "procedure,_shortened": "as §1"}, "[12]": {"tested_on": "barnyardgrass (Echinochloa crus-galli)", "assay": "Test B flooded paddy test", "settings": "Flood, 1000 g ai/ha; scale 0 (no effect) to 100 (complete control)", "procedure,_shortened": "(§2)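 Rice, umbrella sedge, duck salad and barnyardgrass grown to 2-leaf stage under flooded paddy conditions and treated with formulated test chemicals. Kept in greenhouse 13–15 days, then visually rated against untreated controls on a 0–100 scale (0 no effect, 100 complete control).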"}, "[13]": {"tested_on": "duck salad (Heteranthera limosa)", "assay": "Test B flooded paddy test", "settings": "Flood, 1000 g ai/ha; scale 0 to 100", "procedure,_shortened": "as §2"}, "rice (Oryza sativa)": {"tested_on": "rice (Oryza sativa)", "assay": "Test B flooded paddy test", "settings": "Flood, 1000 g ai/ha; scale 0 to 100", "procedure,_shortened": "as §2"}, "[14]": {"tested_on": "umbrella sedge (Cyperus difformis)", "assay": "Test B flooded paddy test", "settings": "Flood, 1000 g ai/ha; scale 0 to 100", "procedure,_shortened": "as §2"}, "[15]": {"settings": "Postemergence, 125 g ai/ha, scale 0 to 100 (0 no effect, 100 complete control)"}, "[16]": {"settings": "Postemergence, 500 g ai/ha, scale 0 to 100"}, "[17]": {"settings": "Preemergence, 125 g ai/ha, scale 0 to 100 (0 no effect, 100 complete control)"}, "[18]": {"settings": "Preemergence, 500 g ai/ha, scale 0 to 100 (0 no effect, 100 complete control)"}, "[19]": {"settings": "125 g ai/ha, scale 0 to 100 (0 no effect, 100 complete control)"}},
  "data": [
    {"smiles": "Nc1nc(C2CC2)nc(C=NO)c1Br", "note": "[Compound 27]", "values": [
      {"measurement": "Surinam Grass plant response rating", "setting": "[1]; [15]", "result": 0},
      {"measurement": "Plant response rating, Surinam Grass", "setting": "[1]; [16]", "result": 0},
      {"measurement": "Plant response rating, Surinam Grass", "setting": "[1]; [17]", "result": 0},
      {"measurement": "Surinam Grass plant response rating", "setting": "[1]; [18]", "result": 70},
      {"measurement": "Barnyardgrass plant response rating", "setting": "[2]; [15]", "result": 0},
      {"measurement": "Plant response rating, Barnyardgrass", "setting": "[2]; [16]", "result": 0},
      {"measurement": "Plant response rating, Barnyardgrass", "setting": "[2]; [17]", "result": 30},
      {"measurement": "Barnyardgrass plant response rating", "setting": "[2]; [18]", "result": 60},
      {"measurement": "Cocklebur plant response rating", "setting": "[3]; [15]", "result": 100},
      {"measurement": "Plant response rating, Cocklebur", "setting": "[3]; [16]", "result": 100},
      {"measurement": "Plant response rating, Cocklebur", "setting": "[3]; [17]", "result": 80},
      {"measurement": "Cocklebur plant response rating", "setting": "[3]; [18]", "result": 90},
      {"measurement": "Corn plant response rating", "setting": "corn (Zea mays); [15]", "result": 0},
      {"measurement": "Plant response rating, Corn", "setting": "corn (Zea mays); [16]", "result": 20},
      {"measurement": "Plant response rating, Corn", "setting": "corn (Zea mays); [17]", "result": 10},
      {"measurement": "Corn plant response rating", "setting": "corn (Zea mays); [18]", "result": 50},
      {"measurement": "Crabgrass plant response rating", "setting": "[4]; [15]", "result": 10},
      {"measurement": "Plant response rating, Crabgrass", "setting": "[4]; [16]", "result": 10},
      {"measurement": "Plant response rating, Crabgrass", "setting": "[4]; [17]", "result": 30},
      {"measurement": "Crabgrass plant response rating", "setting": "[4]; [18]", "result": 70},
      {"measurement": "Foxtail, Giant plant response rating", "setting": "[5]; [15]", "result": 20},
      {"measurement": "Plant response rating, Foxtail, Giant", "setting": "[5]; [16]", "result": 30},
      {"measurement": "Plant response rating, Foxtail, Giant", "setting": "[5]; [17]", "result": 0},
      {"measurement": "Foxtail, Giant plant response rating", "setting": "[5]; [18]", "result": 40},
      {"measurement": "Lambsquarters plant response rating", "setting": "[6]; [15]", "result": 80},
      {"measurement": "Plant response rating, Lambsquarters", "setting": "[6]; [16]", "result": 90},
      {"measurement": "Plant response rating, Lambsquarters", "setting": "[6]; [17]", "result": 90},
      {"measurement": "Lambsquarters plant response rating", "setting": "[6]; [18]", "result": 100},
      {"measurement": "Morningglory plant response rating", "setting": "[7]; [15]", "result": 70},
      {"measurement": "Plant response rating, Morningglory", "setting": "[7]; [16]", "result": 90},
      {"measurement": "Plant response rating, Morningglory", "setting": "[7]; [17]", "result": 80},
      {"measurement": "Morningglory plant response rating", "setting": "[7]; [18]", "result": 90},
      {"measurement": "Pigweed plant response rating", "setting": "[8]; [15]", "result": 60},
      {"measurement": "Plant response rating, Pigweed", "setting": "[8]; [16]", "result": 70},
      {"measurement": "Plant response rating, Pigweed", "setting": "[8]; [17]", "result": 90},
      {"measurement": "Pigweed plant response rating", "setting": "[8]; [18]", "result": 100},
      {"measurement": "Velvetleaf plant response rating", "setting": "[9]; [15]", "result": 60},
      {"measurement": "Plant response rating, Velvetleaf", "setting": "[9]; [16]", "result": 70},
      {"measurement": "Plant response rating, Velvetleaf", "setting": "[9]; [17]", "result": 80},
      {"measurement": "Velvetleaf plant response rating", "setting": "[9]; [18]", "result": 90},
      {"measurement": "Wheat plant response rating", "setting": "[10]; [15]", "result": 20},
      {"measurement": "Plant response rating, Wheat", "setting": "[10]; [16]", "result": 30},
      {"measurement": "Plant response rating, Wheat", "setting": "[10]; [17]", "result": 10},
      {"measurement": "Wheat plant response rating", "setting": "[10]; [18]", "result": 50},
      {"measurement": "Blackgrass plant response rating", "setting": "[11]; [19]", "result": 30},
      {"measurement": "Plant response rating, Blackgrass", "setting": "[11]; 500 g ai/ha, scale 0 to 100", "result": 30},
      {"measurement": "Oat, Wild plant response rating", "setting": "wild oat (Avena fatua); [19]", "result": 20},
      {"measurement": "Plant response rating, Oat, Wild", "setting": "wild oat (Avena fatua); 500 g ai/ha, scale 0 to 100", "result": 30},
      {"measurement": "Plant response rating, Barnyardgrass", "setting": "[12]", "result": 0},
      {"measurement": "Plant response rating, Ducksalad", "setting": "[13]", "result": 60},
      {"measurement": "Plant response rating, Rice", "setting": "rice (Oryza sativa)", "result": 20},
      {"measurement": "Plant response rating, Sedge, Umbrella", "setting": "[14]", "result": 60}
    ]}
  ]
}
